Source: ChEMBL document CHEMBL1649318, “Chromosomally encoded blaCMY-2 located on a novel SXT/R391-related integrating conjugative element in a Proteus mirabilis clinical isolate” (2010)
Values after ≈ are worked out from the molar mass of the structure shown.

Legend:
[1] = tested on: Proteus mirabilis; test: Antimicrobial activity against Proteus mirabilis TUM4660 by broth dilution method; type: functional
[2] = tested on: Escherichia coli; test: Antimicrobial activity against Escherichia coli TUM4672 by broth dilution method
[3] = tested on: Escherichia coli; test: Antimicrobial activity against Escherichia coli TUM4670 by broth dilution method; type: functional
[4] = tested on: Escherichia coli; test: Antimicrobial activity against Escherichia coli ML4909 by broth dilution method; type: functional
[5] = tested on: Escherichia coli; test: Antimicrobial activity against Escherichia coli ML4901 by broth dilution method; type: functional
[6] = tested on: Escherichia coli; test: Antimicrobial activity against Escherichia coli ML4909 by broth dilution method in presence of beta-lactamase inhibitor clavulanic acid; type: functional
[7] = tested on: Escherichia coli; test: Antimicrobial activity against Escherichia coli TUM4672 by broth dilution method in presence of beta-lactamase inhibitor clavulanic acid
[8] = tested on: Proteus mirabilis; test: Antimicrobial activity against Proteus mirabilis TUM4660 by broth dilution method in presence of beta-lactamase inhibitor clavulanic acid; type: functional
[9] = tested on: Escherichia coli; test: Antimicrobial activity against Escherichia coli ML4901 by broth dilution method in presence of beta-lactamase inhibitor clavulanic acid; type: functional
[10] = tested on: Escherichia coli; test: Antimicrobial activity against Escherichia coli TUM4670 by broth dilution method in presence of beta-lactamase inhibitor clavulanic acid
[11] = tested on: Proteus mirabilis; test: Antimicrobial activity against Proteus mirabilis TUM4660 by disk diffusion method in presence of 300 ug 3-aminophenyl-boronic acid; type: functional
[12] = tested on: Escherichia coli; test: Antimicrobial activity against Escherichia coli ML4909 by broth dilution method in presence of beta-lactamase inhibitor Tazobactam; type: functional
[13] = tested on: Escherichia coli; test: Antimicrobial activity against Escherichia coli TUM4670 by broth dilution method in presence of beta-lactamase inhibitor Tazobactam; type: functional
[14] = tested on: Proteus mirabilis; test: Antimicrobial activity against Proteus mirabilis TUM4660 by broth dilution method in presence of beta-lactamase inhibitor Tazobactam; type: functional
[15] = tested on: Escherichia coli; test: Antimicrobial activity against Escherichia coli ML4901 by broth dilution method in presence of beta-lactamase inhibitor Tazobactam; type: functional
[16] = tested on: Escherichia coli; test: Antimicrobial activity against Escherichia coli TUM4672 by broth dilution method in presence of beta-lactamase inhibitor Tazobactam; type: functional

Row | Molecule | MIC [1] [µg/mL] | MIC [2] [µg/mL] | MIC [3] [µg/mL] | MIC [4] [µg/mL] | MIC [5] [µg/mL] | MIC [6] [µg/mL] | MIC [7] [µg/mL] | MIC [8] [µg/mL] | MIC [9] [µg/mL] | MIC [10] [µg/mL] | diameter of the inhibition zone (DIZ) [11] [mm] | MIC [12] [µg/mL] | MIC [13] [µg/mL] | MIC [14] [µg/mL] | MIC [15] [µg/mL] | MIC [16] [µg/mL]
1 | CO/N=C(\C(=O)N[C@@H]1C(=O)N2C(C(=O)[O-])=C(C[N+]3(C)CCCC3)CS[C@H]12)c1csc(N)n1 | 2 (≈ 4.16 µM) | 2 (≈ 4.16 µM) | 1 (≈ 2.08 µM) | ≤ 0.06 | – | – | – | – | – | – | – | – | – | – | – | –
2 | CC1(C)S[C@@H]2[C@H](NC(=O)[C@H](N)c3ccc(O)cc3)C(=O)N2[C@H]1C(=O)O [AMOXICILLIN] | > 128 | > 128 | > 128 | 2 (≈ 5.47 µM) | 4 (≈ 10.9 µM) | 2 | > 128 | > 128 | 4 | > 128 | – | – | – | – | – | –
3 | CO/N=C(\C(=O)N[C@@H]1C(=O)N2C(C(=O)O)=C(COC(C)=O)CS[C@H]12)c1csc(N)n1 [CEFOTAXIME] | 8 (≈ 17.6 µM) | 32 (≈ 70.3 µM) | 16 (≈ 35.1 µM) | ≤ 0.06 | ≤ 0.06 | ≤ 0.06 | 64 | 16 | ≤ 0.06 | 32 | – | – | – | – | – | –
4 | CO[C@@]1(NC(=O)Cc2cccs2)C(=O)N2C(C(=O)O)=C(COC(N)=O)CS[C@@H]21 [CEFOXITIN] | 128 (≈ 299 µM) | > 128 | 128 (≈ 299 µM) | 4 (≈ 9.36 µM) | 2 (≈ 4.68 µM) | – | – | – | – | – | – | – | – | – | – | –
5 | CC(C)(O/N=C(\C(=O)N[C@@H]1C(=O)N2C(C(=O)[O-])=C(C[n+]3ccccc3)CS[C@H]12)c1csc(N)n1)C(=O)O [CEFTAZIDIME] | 16 (≈ 29.3 µM) | 128 (≈ 234 µM) | 128 (≈ 234 µM) | 0.25 (≈ 0.457 µM) | 0.25 (≈ 0.457 µM) | 0.12 | 64 | 16 | ≤ 0.06 | 32 | >5 | – | – | – | – | –
6 | O=C(O)c1cn(C2CC2)c2cc(N3CCNCC3)c(F)cc2c1=O [CIPROFLOXACIN] | 0.12 (≈ 0.362 µM) | ≤ 0.06 | ≤ 0.06 | ≤ 0.06 | ≤ 0.06 | – | – | – | – | – | – | – | – | – | – | –
7 | C[C@@H](O)[C@H]1C(=O)N2C(C(=O)O)=C(SCCNC=N)C[C@H]12 [IMIPENEM ANHYDROUS] | 8 (≈ 26.7 µM) | 0.25 (≈ 0.835 µM) | 0.25 (≈ 0.835 µM) | – | – | – | – | – | – | – | – | – | – | – | – | –
8 | CCN1CCN(C(=O)N[C@@H](C(=O)N[C@@H]2C(=O)N3[C@@H]2SC(C)(C)[C@@H]3C(=O)O)c2ccccc2)C(=O)C1=O [PIPERACILLIN] | > 128 | > 128 | > 128 | 2 (≈ 3.86 µM) | 2 (≈ 3.86 µM) | – | – | – | – | – | – | 2 | > 128 | 16 | 2 | > 128
9 | COc1cc(Cc2cnc(N)nc2N)cc(OC)c1OC [TRIMETHOPRIM] | 4 (≈ 13.8 µM) | ≤ 0.06 | ≤ 0.06 | 0.12 (≈ 0.413 µM) | ≤ 0.06 | – | – | – | – | – | – | – | – | – | – | –
10 | GENTAMICIN | 1 | – | 1 | 2 | 2 | – | – | – | – | – | – | – | – | – | – | –
